# Literature values in patent US20050142185A1, “Softgel formulations of bisphosphonates bone resorption inhibitors” (priority 2003, published 2005).
# Assays:
# [1] = taken either concurrently with or 2 hours after breakfast
# [2] = marketed tablet not taken with enough water, or patient not upright for about one-half hour after taking
smiles,measurement,setting,value
"NCCCC(O)(P(=O)(O)O)P(=O)(O)O [alendronate, 4-amino-1-hydroxybutylidene-1,1-biphosphonic acid]",impairment of availability,[1],> 85%
same,side effects reported,[2],esophageal irritation and erosion
